In patent publication US8455665B2, “3-phenoxymethylpyrrolidine compounds” (Theravance, Inc., priority 2009, dated 2013):
Marks after values point to notes of the source that are not given here.

Key:
SERT = SERT (Homo sapiens, UniProt P31645); test: fluorescence-based serotonin uptake assay (Tsuruda et al. 2010); format: cell-based; conditions: serotonin reuptake inhibition, fluorescence-based assay (data indicated by an asterisk); for IC50: read-out: SERT pIC50 (converted)
NET = NET (Homo sapiens, UniProt P23975); test: fluorescence-based norepinephrine uptake assay (Tsuruda et al. 2010); format: cell-based; conditions: norepinephrine reuptake inhibition, fluorescence-based assay (data indicated by an asterisk); for IC50: read-out: NET pIC50 (converted)
NET, sequence (P23975 whole entry): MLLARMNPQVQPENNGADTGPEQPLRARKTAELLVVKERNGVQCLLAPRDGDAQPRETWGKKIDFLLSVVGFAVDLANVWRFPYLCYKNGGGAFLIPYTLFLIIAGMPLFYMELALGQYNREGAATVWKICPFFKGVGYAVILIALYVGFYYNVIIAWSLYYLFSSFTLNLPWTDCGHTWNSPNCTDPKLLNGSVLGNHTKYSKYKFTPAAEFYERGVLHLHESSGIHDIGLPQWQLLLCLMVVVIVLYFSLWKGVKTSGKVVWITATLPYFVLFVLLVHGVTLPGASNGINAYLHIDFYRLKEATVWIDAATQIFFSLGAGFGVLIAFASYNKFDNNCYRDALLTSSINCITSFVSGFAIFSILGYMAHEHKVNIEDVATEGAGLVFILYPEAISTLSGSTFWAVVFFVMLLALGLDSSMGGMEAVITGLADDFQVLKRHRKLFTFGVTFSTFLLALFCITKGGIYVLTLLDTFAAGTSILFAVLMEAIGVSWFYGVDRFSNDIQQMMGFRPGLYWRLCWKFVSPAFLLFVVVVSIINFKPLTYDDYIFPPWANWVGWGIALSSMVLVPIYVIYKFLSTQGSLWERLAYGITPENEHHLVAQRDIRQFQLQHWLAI

SERT, sequence (P31645 whole entry, species assumed): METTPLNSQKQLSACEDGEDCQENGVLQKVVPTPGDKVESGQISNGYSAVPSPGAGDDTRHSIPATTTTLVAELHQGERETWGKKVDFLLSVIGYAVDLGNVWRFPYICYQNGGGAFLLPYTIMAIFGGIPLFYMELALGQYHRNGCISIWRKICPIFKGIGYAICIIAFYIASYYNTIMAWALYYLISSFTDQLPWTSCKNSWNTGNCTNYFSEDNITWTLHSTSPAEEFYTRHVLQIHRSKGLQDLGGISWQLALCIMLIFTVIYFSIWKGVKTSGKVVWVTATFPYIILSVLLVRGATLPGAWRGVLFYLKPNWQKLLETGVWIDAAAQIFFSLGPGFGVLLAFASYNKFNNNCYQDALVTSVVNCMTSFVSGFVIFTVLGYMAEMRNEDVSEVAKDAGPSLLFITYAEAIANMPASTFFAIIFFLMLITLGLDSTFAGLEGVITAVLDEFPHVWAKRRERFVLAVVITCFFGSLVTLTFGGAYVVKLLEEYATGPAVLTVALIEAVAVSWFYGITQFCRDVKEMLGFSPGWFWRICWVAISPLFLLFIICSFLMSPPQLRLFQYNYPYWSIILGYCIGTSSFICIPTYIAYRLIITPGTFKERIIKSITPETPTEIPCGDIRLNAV

| Structure (SMILES) | IC50 (SERT) [nM] | IC50 (NET) [nM] | SERT pIC50 (SERT) | NET pIC50 (NET) |
| --- | --- | --- | --- | --- |
| CC(C)OC[C@@H](Oc1cccc(Cl)c1C(F)(F)F)[C@H]1CCNC1 [Example 9-19, (S)-3-[(S)-1-(3-Chloro-2-trifluoromethylphenoxy)-2-isopropoxyethyl]pyrrolidine] | ≤ 10 | ≤ 10 |  |  |
| CC(C)OCC(Oc1cccc(Cl)c1C(F)(F)F)C1CCNC1 [Example 9-20, (S)-3-[(R)-1-(3-Chloro-2-trifluoromethyl-phenoxy)-2-isopropoxycthyl]pyrrolidine] | ≤ 100 | ≤ 10 |  |  |
| CC(C)OC[C@@H](Oc1ccc(Cl)cc1Cl)[C@H]1CCNC1 [Example 9-23, (S)-3-[(S)-1-(2,4-Dichlorophenoxy)-2-isopropoxyethyl]pyrrolidine] | ≤ 10 | ≤ 100 |  |  |
| CC(C)OC[C@@H](Oc1c(Cl)cccc1Cl)[C@H]1CCNC1 [Example 9-28, (S)-3-[(S)-1-(2,6-Dichlorophenoxy)-2-isopropoxyethyl]pyrrolidine] | ≤ 100 | ≤ 10 |  |  |
| CC(C)OC[C@H](Oc1c(Cl)cccc1Cl)[C@H]1CCNC1 [Example 9-29, (S)-3-[(R)-1-(2,6-Dichlorophenoxy)-2-isopropoxyethyl]pyrrolidine] | ≤ 100 | ≤ 10 |  |  |
| Clc1ccccc1O[C@@H](COCc1ccccc1)[C@H]1CCNC1 [Example 10-1] |  |  | ≧7.0* | ≧8.0* |
| Clc1cccc(OC(COCc2ccccc2)C2CCNC2)c1Cl [Example 10-2, ((S)-3-[(R)-2-Benzyloxy-1-(2,3-dichlorophenoxy)ethyl]pyrrolidine] | ≤ 10 | ≤ 10 |  |  |
| Clc1ccc(OC(COCc2ccccc2)C2CCNC2)c(Cl)c1 [Example 10-3, ((S)-3-[(R)-2-Benzyloxy-1-(2,4-dichlorophenoxy)ethyl]pyrrolidine] | ≤ 10 | ≤ 100 |  |  |
| Clc1cccc(Cl)c1OC(COCc1ccccc1)C1CCNC1 [Example 10-4, ((S)-3-[(R)-2-Benzyloxy-1-(2,6-dichlorophenoxy)ethyl]pyrrolidine] | ≤ 100 | ≤ 10 |  |  |
| Cc1c(Cl)cccc1OC(COCc1ccccc1)C1CCNC1 [Example 10-5, ((S)-3-[(R)-2-Benzyloxy-1-(3-chloro-2-methylphenoxy)ethyl]pyrrolidine] | ≤ 10 | ≤ 10 |  |  |
| CSC[C@H](Oc1ccc(Cl)cc1C)[C@H]1CCNC1 [Example 14, (S)-3-[(R)-1-(4-Chloro-2-methylphenoxy)-2-methylsulfanylethyl]pyrrolidine] | ≤ 10 | ≤ 10 |  |  |
| CSC[C@H](Oc1cccc(Cl)c1Cl)[C@H]1CCNC1.O=C(O)C(F)(F)F [Example 15-1] |  |  | ≧8.0* | ≧8.0* |
| CSC[C@@H](Oc1cccc(Cl)c1Cl)[C@H]1CCNC1.O=C(O)C(F)(F)F [Example 15-2] |  |  | ≧8.0* | ≧8.0* |
| CSC[C@H](Oc1cccc(F)c1Cl)[C@H]1CCNC1.O=C(O)C(F)(F)F [Example 15-3] |  |  | ≧8.0* | ≧8.0* |
| CSC[C@@H](Oc1cccc(F)c1Cl)[C@H]1CCNC1.O=C(O)C(F)(F)F [Example 15-4] |  |  | ≧8.0* | ≧8.0* |
| CSC[C@H](Oc1cccc(Cl)c1C)[C@H]1CCNC1.O=C(O)C(F)(F)F [Example 15-5] |  |  | ≧8.0* | ≧8.0* |
| CSC[C@@H](Oc1cccc(Cl)c1C)[C@H]1CCNC1.O=C(O)C(F)(F)F [Example 15-6] |  |  | ≧8.0* | ≧8.0* |
| CSC[C@H](Oc1cccc(Cl)c1C(F)(F)F)[C@H]1CCNC1.O=C(O)C(F)(F)F [Example 15-7] |  |  | ≧8.0* | ≧8.0* |
| CSC[C@@H](Oc1cccc(Cl)c1C(F)(F)F)[C@H]1CCNC1.O=C(O)C(F)(F)F [Example 15-8] |  |  | ≧8.0* | ≧7.0* |
| CSC[C@H](Oc1cccc(C(F)(F)F)c1)[C@H]1CCNC1.O=C(O)C(F)(F)F [Example 15-9] |  |  | ≧7.0* | ≧7.0* |
| CSC[C@@H](Oc1cccc(C(F)(F)F)c1)[C@H]1CCNC1.O=C(O)C(F)(F)F [Example 15-10] |  |  | ≧7.0* | ≧7.0* |
| CSC[C@H](Oc1ccc(Cl)cc1Cl)[C@H]1CCNC1.O=C(O)C(F)(F)F [Example 15-11] |  |  | ≧8.0* | ≧8.0* |
| CSC[C@@H](Oc1ccc(Cl)cc1Cl)[C@H]1CCNC1.O=C(O)C(F)(F)F [Example 15-12] |  |  | ≧8.0* | ≧7.0* |
| CSC[C@@H](Oc1c(C)cc(Cl)cc1Cl)[C@H]1CCNC1.O=C(O)C(F)(F)F [Example 15-13] |  |  | ≧8.0* | ≧7.0* |
| CSC[C@@H](Oc1ccc(F)c(F)c1F)[C@H]1CCNC1.O=C(O)C(F)(F)F [Example 15-14] |  |  | ≧7.0* | ≧8.0* |

| Structure (SMILES) | IC50 (SERT) [nM] | IC50 (NET) [nM] | SERT pIC50 (SERT) | NET pIC50 (NET) |
| --- | --- | --- | --- | --- |
| CCSC[C@H](Oc1cccc(Cl)c1C(F)(F)F)[C@H]1CCNC1 [Example 16, (S)-3-[(R)-1-(3-Chloro-2-trifluoromethylphenoxy)-2-ethylsulfanylethyl]-pyrrolidine] | ≤ 10 | ≤ 10 |  |  |
| CCSC[C@H](Oc1cccc(Cl)c1Cl)[C@H]1CCNC1.O=C(O)C(F)(F)F [Example 17-1] |  |  | ≧8.0* | ≧8.0* |
| CCSC[C@@H](Oc1cccc(Cl)c1Cl)[C@H]1CCNC1.O=C(O)C(F)(F)F [Example 17-2] |  |  | ≧8.0* | ≧8.0* |
| CCSC[C@H](Oc1cccc(F)c1Cl)[C@H]1CCNC1.O=C(O)C(F)(F)F [Example 17-3] |  |  | ≧8.0* | ≧8.0* |
| CCSC[C@@H](Oc1cccc(F)c1Cl)[C@H]1CCNC1.O=C(O)C(F)(F)F [Example 17-4] |  |  | ≧8.0* | ≧8.0* |
| CCSC[C@H](Oc1cccc(Cl)c1C)[C@H]1CCNC1.O=C(O)C(F)(F)F [Example 17-5] |  |  | ≧8.0* | ≧8.0* |
| CCSC[C@@H](Oc1cccc(Cl)c1C)[C@H]1CCNC1.O=C(O)C(F)(F)F [Example 17-6] |  |  | ≧8.0* | ≧8.0* |
| CCSC[C@H](Oc1ccc(Cl)cc1Cl)[C@H]1CCNC1.O=C(O)C(F)(F)F [Example 17-7] |  |  | ≧8.0* | ≧8.0* |
| CCSC[C@@H](Oc1ccc(Cl)cc1Cl)[C@H]1CCNC1.O=C(O)C(F)(F)F [Example 17-8] |  |  | ≧8.0* | ≧8.0* |
| CCSC[C@H](Oc1ccc(Cl)c(Cl)c1)[C@H]1CCNC1.O=C(O)C(F)(F)F [Example 17-9] |  |  | ≧8.0* | ≧8.0* |
| CCSC[C@H](Oc1ccc(Cl)cc1)[C@H]1CCNC1.O=C(O)C(F)(F)F [Example 17-10] |  |  | ≧8.0* | ≧8.0* |
| CCSC[C@H](Oc1ccc(C(F)(F)F)cc1)[C@H]1CCNC1.O=C(O)C(F)(F)F [Example 17-11] |  |  | ≧8.0* | ≧8.0* |
| CCSC[C@@H](Oc1cccc(C(F)(F)F)c1)[C@H]1CCNC1.O=C(O)C(F)(F)F [Example 17-12] |  |  | ≧8.0* | ≧7.0* |
| CCSC[C@H](Oc1ccc(Cl)cc1C(F)(F)F)[C@H]1CCNC1.O=C(O)C(F)(F)F [Example 17-13] |  |  | ≧8.0* | ≧8.0* |
| CCSC[C@@H](Oc1cccc(Cl)c1C(F)(F)F)[C@H]1CCNC1.O=C(O)C(F)(F)F [Example 17-14] |  |  | ≧8.0* | ≧7.0* |
| CC(C)SC[C@H](Oc1cccc(Cl)c1C(F)(F)F)[C@H]1CCNC1 [Example 18, (S)-3-[(R)-1-(3-Chloro-2-trifluoromethylphenoxy)-2-isopropylsulfanylethyl]pyrrolidine] | ≤ 10 | ≤ 10 |  |  |
| CC(C)SC[C@H](Oc1cccc(Cl)c1Cl)[C@H]1CCNC1 [Example 19-1, (S)-3-[(R)-1-(2,3-Dichlorophenoxy)-2-isopropylsulfanylethyl]pyrrolidine] | ≤ 10 | ≤ 10 |  |  |
| CC(C)SC[C@@H](Oc1cccc(Cl)c1Cl)[C@H]1CCNC1 [Example 19-2, (S)-3-[(S)-1-(2,3-Dichlorophenoxy)-2-isopropylsulfanylethyl]pyrrolidine] | ≤ 10 | ≤ 10 |  |  |
| CC(C)SC[C@H](Oc1cccc(F)c1Cl)[C@H]1CCNC1 [Example 19-3, (S)-3-[(R)-1-(2-Chloro-3-fluorophenoxy)-2-isopropylsulfanylethyl]pyrrolidine] | ≤ 10 | ≤ 10 |  |  |
| CC(C)SC[C@@H](Oc1cccc(F)c1Cl)[C@H]1CCNC1 [Example 19-4, (S)-3-[(S)-1-(2-Chloro-3-fluorophenoxy)-2-isopropylsulfanylethyl]pyrrolidine] | ≤ 10 | ≤ 10 |  |  |
| CC(C)SC[C@@H](Oc1ccc(Cl)cc1Cl)[C@H]1CCNC1 [Example 19-5, (S)-3-[(S)-1-(2,4-Dichlorophenoxy)-2-isopropylsulfanylethyl]pyrrolidine] | ≤ 10 | ≤ 100 |  |  |
| CC(C)SC[C@@H](Oc1cccc(Cl)c1C(F)(F)F)[C@H]1CCNC1 [Example 19-6, (S)-3-[(S)-1-(3-Chloro-2-trifluoromethylphenoxy)-2-isopropylsulfanylethyl]pyrrolidine] | ≤ 10 | ≤ 10 |  |  |
| CC(C)SC[C@H](Oc1ccc(Cl)c(Cl)c1)[C@H]1CCNC1 [Example 19-7, (S)-3-[(R)-1-(3,4-Dichlorophenoxy)-2-isopropylsulfanylethyl]-pyrrolidine] | ≤ 10 | ≤ 10 |  |  |
| Cc1cc(Cl)ccc1O[C@@H](COCc1ccccc1)[C@H]1CCNC1.O=C(O)C(F)(F)F [Prep 3] |  |  | ≧8.0* | ≧8.0* |
